The text below walks through data of PMC7654703 (ACS chemical biology, 2020).

The conditions of data set [1]: optical sensor assay; cited from earlier work.
The test system of data set [2] is TNFα-mediated death of WEHI-13VAR cells. The data set is described as follows: WEHI-13VAR cell viability assay. It is filed as cell-based, mouse. The settings on record: pre-incubation of TNFα with 20 μM SPD304 alone; final 20 nM after dilution.
Another data set deals with TNFα-TNFR1 interaction (Homo sapiens, UniProt P01375). As to the kind of experiment: TNFα-TNFR1 competition ELISA. It is filed as binding. The following applies: 100 μM SPD304 alone. In general terms: ELISA stands for enzyme-linked immunosorbent assay.
Sequence of TNFα-TNFR1 interaction (P01375 77-233 limits assumed): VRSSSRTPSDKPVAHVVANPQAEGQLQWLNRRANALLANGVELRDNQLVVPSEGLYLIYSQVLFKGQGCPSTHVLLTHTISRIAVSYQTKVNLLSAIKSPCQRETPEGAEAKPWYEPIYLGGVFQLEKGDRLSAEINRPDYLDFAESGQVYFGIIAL
For data set [3], the target named is bicyclic 19-mer peptide (synthetic construct). The settings on record: cited from earlier work.
The next data set addresses TNFα trimer (Homo sapiens, UniProt P01375). As to the kind of experiment: TNFα oligomerization state by SEC. The class given is biochemical. The settings on record: 1 μM TNFα, additive without peptide (0.05% TWEEN20, one hour RT; 10 μM SPD304). In general terms: SEC sorts molecules by how far they enter the pores of the column.

As a reminder, the Kd is the equilibrium constant for the complex coming apart.

Sequence of TNFα trimer (P01375 77-233 limits assumed): as above
Sequence of TNFα (P01375 77-233): as the sequence (P01375 77-233 limits assumed) above

`Cc1cc2occ(CN(C)CCN(C)Cc3cn(-c4cccc(C(F)(F)F)c4)c4ccccc34)c(=O)c2cc1C` [SPD304]: the “critical aggregation concentration (CAC)” value in data set [1] is 10 µM. In data set [2], the “block of TNFα-mediated cell death by additive alone” value is listed as “did not substantially block”. In addition, on TNFα-TNFR1 interaction, the “TNFα binding to TNFR1 blocked” value is reported as ~ 30%.

Regarding TNFα (from UniProt P01375), in data set [3], the Kd is 5 nM. As to TWEEN20, the “effect of additive alone on TNFα trimer by SEC” value on TNFα trimer is reported as “did not change”.
